# Reference: patent US20250084061A1, “SULFONYL FUNCTIONAL COMPOUND, METHODS AND USES THEREOF” (Hubei Biopesticide Engineering Research Centre, priority 2023, published 2025)
# Where two headings read alike, the source gives them in different places.
# Key:
# [1] = system: Heliothis armigera; assay: Insecticidal activity, artificial feed surface coating method; format: in vivo; conditions: Helicoverpa armigera, read-out: Insecticidal activity (mortality rate grade) Heliothis armigera
# Procedure, shortened: (§1)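 Artificial diet in 24-well plates, surface-coated with test solution at 500, 250 and 125 mg/L. Each concentration was tested in two replicates (Rep1, Rep2).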
# [2] = system: Plutella xylostella; assay: as above; format: in vivo; conditions: Plutella xylostella, read-out: Insecticidal activity (mortality rate grade) Plutella xylostella
# Procedure, shortened: as §1
# [3] = system: Aphiscraccivora; assay: Insecticidal activity, dipping method; format: in vivo
# Procedure, shortened: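 Aphids tested by dipping in ethanol-dissolved compound diluted to 500, 250 or 125 mg/L with 0.1 mL/L Tween-80, two replicates plus blank control. Mortality scored on a 0/3/5/7/9 scale for 0–30, 30–50, 50–70, 70–90 and 90–100%.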
# [4] = system: Verticillium dahliae.kieb.; assay: Bactericidal (fungicidal) activity by microdilution; format: cell-based
# [5] = system: Fusarium culmorum; assay: as above; format: cell-based
# [6] = system: Fusarium oxysporum f. sp. Niveum; assay: as above; format: cell-based
# [7] = system: Thanatephorus cucumeris; assay: as above; format: cell-based
# [8] = system: Septoria nodorum Berk.; assay: as above; format: cell-based
# [9] = system: Botrytis cinerea; assay: as above; format: cell-based
# [10] = system: Leptosphaeria biglobosa; assay: as above; format: cell-based
# [11] = system: Alternaria kikuchiana; assay: as above; format: cell-based
# [12] = system: Corynespora leaf spot of tomato; assay: as above; format: cell-based
# [13] = system: Rhizoctonia solani; assay: as above; format: cell-based
# [14] = system: Colletotrichum gloeobosporioids; assay: as above; format: cell-based
# [15] = system: Pythium aphanidermatum; assay: as above; format: cell-based
# [16] = system: Magnaporthe oryzae; format: cell-based
structure (smiles),measurement,setting,value
COC(=O)Nc1nc2ccccc2n1C/C=C/S(=O)(=O)O [III-2],mortality at 125 µg/mL,[1]; 125 mg/L test solution,0 to 30%
same,mortality at 250 µg/mL,[1]; 250 mg/L test solution,0 to 30%
same,mortality at 500 µg/mL,[1]; 500 mg/L test solution,0 to 30%
same,mortality at 125 µg/mL,[2]; 125 mg/L test solution,0 to 30%
same,mortality at 250 µg/mL,[2]; 250 mg/L test solution,0 to 30%
same,mortality at 500 µg/mL,[2]; 500 mg/L test solution,0 to 30%
same,Insecticidal activity (mortality rate grade) Aphiscraccivora,[3]; 125 mg/L test solution,0 (mortality rate of 0˜30%)
same,Insecticidal activity (mortality rate grade) Aphiscraccivora,[3]; 250 mg/L test solution,0 (mortality rate of 0˜30%)
same,Insecticidal activity (mortality rate grade) Aphiscraccivora,[3]; 500 mg/L test solution,0 (mortality rate of 0˜30%)
same,Fungicidal activity (antibacterial rate grade) Verticillium dahliae. kieb.,[4]; 12.5 mg/L,9 (The antibacterial rate of 90˜100% could be set as 9 if the target has totally no growth)
same,Fungicidal activity (antibacterial rate grade) Verticillium dahliae. kieb.,[4]; 25 mg/L,9 (The antibacterial rate of 90˜100% could be set as 9 if the target has totally no growth)
same,Fungicidal activity (antibacterial rate grade) Verticillium dahliae. kieb.,[4]; 50 mg/L,9 (The antibacterial rate of 90˜100% could be set as 9 if the target has totally no growth)
same,Fungicidal activity (antibacterial rate grade) Verticillium dahliae. kieb.,[4]; 100 mg/L,9 (The antibacterial rate of 90˜100% could be set as 9 if the target has totally no growth)
same,Fungicidal activity (antibacterial rate grade) Fusarium culmorum,[5]; 12.5 mg/L,7 (The antibacterial rate of 70˜90% could be set as 7 if the target has small amounts of growth)
same,Fungicidal activity (antibacterial rate grade) Fusarium culmorum,[5]; 25 mg/L,9 (The antibacterial rate of 90˜100% could be set as 9 if the target has totally no growth)
same,Fungicidal activity (antibacterial rate grade) Fusarium culmorum,[5]; 50 mg/L,9 (The antibacterial rate of 90˜100% could be set as 9 if the target has totally no growth)
same,Fungicidal activity (antibacterial rate grade) Fusarium culmorum,[5]; 100 mg/L,9 (The antibacterial rate of 90˜100% could be set as 9 if the target has totally no growth)
same,Fungicidal activity (antibacterial rate grade) Fusarium oxysporum f. sp. Niveum,[6]; 12.5 mg/L,9 (The antibacterial rate of 90˜100% could be set as 9 if the target has totally no growth)
same,Fungicidal activity (antibacterial rate grade) Fusarium oxysporum f. sp. Niveum,[6]; 25 mg/L,9 (The antibacterial rate of 90˜100% could be set as 9 if the target has totally no growth)
same,Fungicidal activity (antibacterial rate grade) Fusarium oxysporum f. sp. Niveum,[6]; 50 mg/L,9 (The antibacterial rate of 90˜100% could be set as 9 if the target has totally no growth)
same,Fungicidal activity (antibacterial rate grade) Fusarium oxysporum f. sp. Niveum,[6]; 100 mg/L,9 (The antibacterial rate of 90˜100% could be set as 9 if the target has totally no growth)
same,Fungicidal activity (antibacterial rate grade) Thanatephorus cucumeris,[7]; 12.5 mg/L,9 (The antibacterial rate of 90˜100% could be set as 9 if the target has totally no growth)
same,Fungicidal activity (antibacterial rate grade) Thanatephorus cucumeris,[7]; 25 mg/L,9 (The antibacterial rate of 90˜100% could be set as 9 if the target has totally no growth)
same,Fungicidal activity (antibacterial rate grade) Thanatephorus cucumeris,[7]; 50 mg/L,9 (The antibacterial rate of 90˜100% could be set as 9 if the target has totally no growth)
same,Fungicidal activity (antibacterial rate grade) Thanatephorus cucumeris,[7]; 100 mg/L,9 (The antibacterial rate of 90˜100% could be set as 9 if the target has totally no growth)
same,Fungicidal activity (antibacterial rate grade) Septoria nodorum Berk.,[8]; 12.5 mg/L,9 (The antibacterial rate of 90˜100% could be set as 9 if the target has totally no growth)
same,Fungicidal activity (antibacterial rate grade) Septoria nodorum Berk.,[8]; 25 mg/L,9 (The antibacterial rate of 90˜100% could be set as 9 if the target has totally no growth)
same,Fungicidal activity (antibacterial rate grade) Septoria nodorum Berk.,[8]; 50 mg/L,9 (The antibacterial rate of 90˜100% could be set as 9 if the target has totally no growth)
same,Fungicidal activity (antibacterial rate grade) Septoria nodorum Berk.,[8]; 100 mg/L,9 (The antibacterial rate of 90˜100% could be set as 9 if the target has totally no growth)
same,Fungicidal activity (antibacterial rate grade) Botrytis cinerea,[9]; 12.5 mg/L,3 (The antibacterial rate of 0˜30% could be set as 3 if the growth of the target is normal and consistent with that of the blank control)
same,Fungicidal activity (antibacterial rate grade) Botrytis cinerea,[9]; 25 mg/L,3 (The antibacterial rate of 0˜30% could be set as 3 if the growth of the target is normal and consistent with that of the blank control)
same,Fungicidal activity (antibacterial rate grade) Botrytis cinerea,[9]; 50 mg/L,3 (The antibacterial rate of 0˜30% could be set as 3 if the growth of the target is normal and consistent with that of the blank control)
same,Fungicidal activity (antibacterial rate grade) Botrytis cinerea,[9]; 100 mg/L,3 (The antibacterial rate of 0˜30% could be set as 3 if the growth of the target is normal and consistent with that of the blank control)
same,Fungicidal activity (antibacterial rate grade) Leptosphaeria biglobosa,[10]; 12.5 mg/L,9 (The antibacterial rate of 90˜100% could be set as 9 if the target has totally no growth)
same,Fungicidal activity (antibacterial rate grade) Leptosphaeria biglobosa,[10]; 25 mg/L,9 (The antibacterial rate of 90˜100% could be set as 9 if the target has totally no growth)
same,Fungicidal activity (antibacterial rate grade) Leptosphaeria biglobosa,[10]; 50 mg/L,9 (The antibacterial rate of 90˜100% could be set as 9 if the target has totally no growth)
same,Fungicidal activity (antibacterial rate grade) Leptosphaeria biglobosa,[10]; 100 mg/L,9 (The antibacterial rate of 90˜100% could be set as 9 if the target has totally no growth)
same,Fungicidal activity (antibacterial rate grade) Alternaria kikuchiana,[11]; 12.5 mg/L,3 (The antibacterial rate of 0˜30% could be set as 3 if the growth of the target is normal and consistent with that of the blank control)
same,Fungicidal activity (antibacterial rate grade) Alternaria kikuchiana,[11]; 25 mg/L,3 (The antibacterial rate of 0˜30% could be set as 3 if the growth of the target is normal and consistent with that of the blank control)
same,Fungicidal activity (antibacterial rate grade) Alternaria kikuchiana,[11]; 50 mg/L,3 (The antibacterial rate of 0˜30% could be set as 3 if the growth of the target is normal and consistent with that of the blank control)
same,Fungicidal activity (antibacterial rate grade) Alternaria kikuchiana,[11]; 100 mg/L,3 (The antibacterial rate of 0˜30% could be set as 3 if the growth of the target is normal and consistent with that of the blank control)
same,Fungicidal activity (antibacterial rate grade) Corynespora leaf spot of tomato,[12]; 12.5 mg/L,3 (The antibacterial rate of 0˜30% could be set as 3 if the growth of the target is normal and consistent with that of the blank control)
same,Fungicidal activity (antibacterial rate grade) Corynespora leaf spot of tomato,[12]; 25 mg/L,3 (The antibacterial rate of 0˜30% could be set as 3 if the growth of the target is normal and consistent with that of the blank control)
same,Fungicidal activity (antibacterial rate grade) Corynespora leaf spot of tomato,[12]; 50 mg/L,7 (The antibacterial rate of 70˜90% could be set as 7 if the target has small amounts of growth)
same,Fungicidal activity (antibacterial rate grade) Corynespora leaf spot of tomato,[12]; 100 mg/L,7 (The antibacterial rate of 70˜90% could be set as 7 if the target has small amounts of growth)
same,Fungicidal activity (antibacterial rate grade) Rhizoctonia solani,[13]; 12.5 mg/L,3 (The antibacterial rate of 0˜30% could be set as 3 if the growth of the target is normal and consistent with that of the blank control)
same,Fungicidal activity (antibacterial rate grade) Rhizoctonia solani,[13]; 25 mg/L,3 (The antibacterial rate of 0˜30% could be set as 3 if the growth of the target is normal and consistent with that of the blank control)
same,Fungicidal activity (antibacterial rate grade) Rhizoctonia solani,[13]; 50 mg/L,3 (The antibacterial rate of 0˜30% could be set as 3 if the growth of the target is normal and consistent with that of the blank control)
same,Fungicidal activity (antibacterial rate grade) Rhizoctonia solani,[13]; 100 mg/L,3 (The antibacterial rate of 0˜30% could be set as 3 if the growth of the target is normal and consistent with that of the blank control)
same,Fungicidal activity (antibacterial rate grade) Colletotrichum gloeobosporioids,[14]; 12.5 mg/L,9 (The antibacterial rate of 90˜100% could be set as 9 if the target has totally no growth)
same,Fungicidal activity (antibacterial rate grade) Colletotrichum gloeobosporioids,[14]; 25 mg/L,9 (The antibacterial rate of 90˜100% could be set as 9 if the target has totally no growth)
same,Fungicidal activity (antibacterial rate grade) Colletotrichum gloeobosporioids,[14]; 50 mg/L,9 (The antibacterial rate of 90˜100% could be set as 9 if the target has totally no growth)
same,Fungicidal activity (antibacterial rate grade) Colletotrichum gloeobosporioids,[14]; 100 mg/L,9 (The antibacterial rate of 90˜100% could be set as 9 if the target has totally no growth)
same,Fungicidal activity (antibacterial rate grade) Pythium aphanidematum,[15]; 12.5 mg/L,3 (The antibacterial rate of 0˜30% could be set as 3 if the growth of the target is normal and consistent with that of the blank control)
same,Fungicidal activity (antibacterial rate grade) Pythium aphanidematum,[15]; 25 mg/L,3 (The antibacterial rate of 0˜30% could be set as 3 if the growth of the target is normal and consistent with that of the blank control)
same,Fungicidal activity (antibacterial rate grade) Pythium aphanidematum,[15]; 50 mg/L,3 (The antibacterial rate of 0˜30% could be set as 3 if the growth of the target is normal and consistent with that of the blank control)
same,Fungicidal activity (antibacterial rate grade) Pythium aphanidematum,[15]; 100 mg/L,3 (The antibacterial rate of 0˜30% could be set as 3 if the growth of the target is normal and consistent with that of the blank control)
same,Fungicidal activity (antibacterial rate grade) Magnaporthe oryzae,[16]; 12.5 mg/L,9 (The antibacterial rate of 90˜100% could be set as 9 if the target has totally no growth)
same,Fungicidal activity (antibacterial rate grade) Magnaporthe oryzae,[16]; 25 mg/L,9 (The antibacterial rate of 90˜100% could be set as 9 if the target has totally no growth)
same,Fungicidal activity (antibacterial rate grade) Magnaporthe oryzae,[16]; 50 mg/L,9 (The antibacterial rate of 90˜100% could be set as 9 if the target has totally no growth)
same,Fungicidal activity (antibacterial rate grade) Magnaporthe oryzae,[16]; 100 mg/L,9 (The antibacterial rate of 90˜100% could be set as 9 if the target has totally no growth)
